Assay results: patent US20110312945A1, “CRTH2 MODULATORS” (priority 2008, published 2011)

Tests used:
CRTH2 [1] = molecular target: T1, CRTH2 (Homo sapiens, UniProt Q9Y5Y4); assay: Human Whole Blood CD11b Antagonist Assay; type: cell-based; conditions: eosinophil CD11b expression, challenge with 15R-Methyl-PGD2 (10 nM)
T1 construct: polymorphonuclear cells (0.5 ml; 10^6/ml cells) in PBS containing 0.9 mM CaCl2 and 0.5 mM MgCl2; endogenous in cells; host or cells: polymorphonuclear cells (eosinophils gated by flow cytometry)
T1 sequence (Q9Y5Y4 1-395): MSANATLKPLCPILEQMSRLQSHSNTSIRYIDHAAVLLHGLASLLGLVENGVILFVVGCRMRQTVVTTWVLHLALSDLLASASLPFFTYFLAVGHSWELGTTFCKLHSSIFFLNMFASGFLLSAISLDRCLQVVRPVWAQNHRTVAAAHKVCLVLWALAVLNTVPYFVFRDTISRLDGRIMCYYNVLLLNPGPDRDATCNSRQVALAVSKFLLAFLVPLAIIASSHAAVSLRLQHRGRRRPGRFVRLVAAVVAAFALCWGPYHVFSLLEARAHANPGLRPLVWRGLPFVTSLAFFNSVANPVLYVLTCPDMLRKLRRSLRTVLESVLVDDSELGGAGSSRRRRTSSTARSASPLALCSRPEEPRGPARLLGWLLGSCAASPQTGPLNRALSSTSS
Experimental: Human Whole Blood CD11b Antagonist Assay (modified from Nicholson, et al. Pulmonary Pharmacology and Therapeutics: 20 (2007); 52-59). The potential CRTH2 antagonist activity of certain compounds was tested in human whole blood using an assay that tests the ability of the compounds to block the CD11b expression in eosinophils by 15-R-methyl-PGD2. A CRTH2 antagonist should block CD11b expression by subsequently added 15-Methyl-PGD2. Human whole blood (200 μL) was incubated at 37° C. for 10 minutes in the presence of various concentrations of test compounds before being challenged with the agonist 15R-Methyl-PGD2 (10 nM). Reactions were terminated by the addition of ice-cold PBS+0.5% BSA+2 mMEDTA (1 mL) and centrifugation (300×g for 5 minutes at 4° C.) Cells were then incubated at 4° C. for 10 min in the presence of human IgG. Cells were then incubated for 30-45 min with a mixture of PE-Cy5-labeled mouse anti-human CD16 (10 ul; BD Biosciences) and FITC-labeled mouse anti-human CD11b (10 μL; Beckman Coulter.) After rinsing (1 mL ice-cold PBS+0.5% BSA+2 mMEDTA), red blood cells were lysed by the addition of 1 mL ice-cold H2O to the cell pellet for 30 sec-1 min immediately followed by the addition of 3.5% NaCl (300 μL.) Cells were then rinsed (2x−1 ml ice cold PBS+0.5% BSA+2 mMEDTA) and fixed in PBS containing 1% formaldehyde. The distribution of fluorescence intensities was measured by flow cytometry. Eosinophils were gated out on the basis of their granularity (high side scatter) and absence of CD-16. CD11b was then measured on this eosinophil population on the basis of fluorescence due to FITC.

[2] = test system: DK-PGD2-induced systemic eosinophilia; assay: DK-PGD2-Induced Systemic Eosinophilia in Rats; type: in vivo; conditions: Rattus norvegicus, Eosinophil; female Sprague-Dawley rats, oral dosing 30 min before intracardiac 10 μg DK-PGD2, blood eosinophils at 60 min
Experimental: DK-PGD2-Induced Systemic Eosinophilia in Rats. Female Sprague-Dawley rats (175-250 g) were dosed orally with test compound (or vehicle). Thirty minutes after dosing, animals were anaesthetized with isoflurane. Following induction of anaesthesia, animals received an intracardiac injection of 10 μg DK-PGD2 in 0.3 ml heparinized (10 U/ml) saline. Control animals received an injection of 0.3 ml heparinized saline. Sixty minutes after the intracardiac injection, animals were again anesthetized with isoflurane and a blood sample was drawn from the abdominal aorta (into heparin) while the rat was anaesthetized but not dead. An aliquot of blood (500 μL) was mixed with an equal volume of 4% dextran (mw 500,000) and the erythrocytes were allowed to settle. A cytospin preparation was made from the resulting leukocyte rich fraction (top) and the cytospin was fixed and stained with Diff-Quick Stain kit (Dade Behring Inc, Newark, Del.). An aliquot of the leukocyte rich fraction was taken for total leukocyte count using flow cytometer (Guava EasyCyte Mini system). Differential leukocyte counts were obtained from the cytospin preparations. Blood eosinophil numbers were determined from the total leukocyte count and the percentage eosinophils.

CRTH2 [3] = molecular target: T1, CRTH2; assay: DPBS CD11b Antagonist Assay; type: cell-based; conditions: polymorphonuclear cells in PBS, eosinophil CD11b expression, challenge with 15R-Methyl-PGD2 (10 nM)
Experimental: DPBS CD11b Antagonist Assay. The potential CRTH2 antagonist activity of certain compounds was tested using a CD11b expression assay using essentially the method described by Monneret et al. (J Pharmacol Exp Ther 304:349-55, 2003). Briefly, polymorphonuclear cells (0.5 ml; 10^6/ml cells) in PBS containing 0.9 mM CaCl2 and 0.5 mM MgCl2) were preincubated with various concentrations of test compounds at room temperature for 10 minutes before they were challenged with the agonist 15R-Methyl-PGD2 (10 nM). The incubations were terminated by the addition of ice-cold FACSFlow (BD Biosciences; Cat# 342003) and centrifugation (400 g for 5 minutes at 4° C.). The cells were then incubated for 30 minutes at 4° C. with a mixture of PE-labeled mouse anti-human VLA-4 (5 μl; BD Biosciences) and FITC-labeled mouse anti-human CD11b (10 μl; Beckman Coulter). The cells were then incubated with Optilyse C (0.25 ml; Beckman Coulter) for 15 minutes, centrifuged, and then fixed in PBS (0.4 ml; calcium and magnesium free) containing 1% formaldehyde. The distribution of fluorescence intensities among 60,000 cells was measured by flow cytometry. Eosinophils were gated out on the basis of their granularity (high side scatter) and labeling with VLA-4 (PE fluorescence). CD11b was then measured in the eosinophil region on the basis of fluorescence due to FITC. All data were corrected for the value obtained for the corresponding isotope control antibody.

Row | Compound | IC50 (CRTH2 [1]) | ED50 [2] | IC50 (CRTH2 [3])
1 | Cc1c(Cc2ccc(S(=O)(=O)N3CCCC3)cc2)c2c(n1CC(=O)O)CCCC2 [Example I-1, 2-(2-Methyl-3-(4-(pyrrolidin-1-ylsulfonyl)benzyl)-4,5,6,7-tetrahydro-1H-indol-1-yl)acetic acid] | 5 to 100 nM | 1 to 10 mg/kg | < 5 nM
2 | Cc1c(Cc2ccc(S(=O)(=O)NC3CCCCC3)cc2)c2c(n1CC(=O)O)CCCC2 [Example I-2, 2-(3-(4-(N-Cyclohexylsulfamoyl)benzyl)-2-methyl-4,5,6,7-tetrahydro-1H-indol-1-yl)acetic acid] | 100 to 500 nM | 1 to 10 mg/kg | < 5 nM
3 | Cc1c(Cc2ccc(S(=O)(=O)N3CCCC3)cc2)c2c(n1CC(=O)O)CCC(C)(C)C2 [Example I-4, 2-(2,5,5-Trimethyl-3-(4-(pyrrolidin-1-ylsulfonyl)benzyl)-4,5,6,7-tetrahydro-1H-indol-1-yl)acetic acid] | 5 to 100 nM | < 1 mg/kg | < 5 nM
4 | Cc1c(Cc2ccccc2S(=O)(=O)c2ccccc2)c2c(n1CC(=O)O)CCC(C)(C)C2 [Example I-9, 2-(2,5,5-Trimethyl-3-(2-(phenylsulfonyl)benzyl)-4,5,6,7-tetrahydro-1H-indol-1-yl)acetic acid] | – | < 1 mg/kg | –
5 | Cc1c(Cc2ccc(S(=O)(=O)N3CCOCC3)cc2)c2c(n1CC(=O)O)CCC(C)(C)C2 [Example I-11, 2-(2,5,5-Trimethyl-3-(4-(morpholinosulfonyl)benzyl)-4,5,6,7-tetrahydro-1H-indol-1-yl)acetic acid] | 100 to 500 nM | < 1 mg/kg | < 5 nM
6 | Cc1c(Cc2ccccc2S(=O)(=O)N2CCOCC2)c2c(n1CC(=O)O)CCC(C)(C)C2 [Example I-17, 2-(2,5,5-Trimethyl-3-(2-(morpholinosulfonyl)benzyl)-4,5,6,7-tetrahydro-1H-indol-1-yl)acetic acid] | 5 to 100 nM | < 1 mg/kg | < 5 nM
7 | Cc1c(Cc2ccc(S(=O)(=O)N3CCCC3)cc2)c2c(n1CC(=O)O)CCC2 [Example I-19, 2-(2-Methyl-3-(4-(pyrrolidin-1-ylsulfonyl)benzyl)-5,6-dihydrocyclopenta[b]pyrrol-1(4H)-yl)acetic acid] | – | < 1 mg/kg | 5 to 100 nM
8 | Cc1c(Cc2ccc(S(=O)(=O)N3CCCC3)cc2)c2c(n1CC(=O)O)CCCCC2 [Example I-20, 2-(2-Methyl-3-(4-(pyrrolidin-1-ylsulfonyl)benzyl)-5,6,7,8-tetrahydrocyclohepta[b]pyrrol-1(4H)-yl)acetic acid] | 5 to 100 nM | < 1 mg/kg | 5 to 100 nM
9 | Cc1c(Cc2ccccc2S(=O)(=O)N2CCOCC2)c2c(n1CC(=O)O)CCCCC2 [Example I-21, 2-(2-Methyl-3-(2-(morpholinosulfonyl)benzyl)-5,6,7,8-tetrahydrocyclohepta[b]pyrrol-1(4H)-yl)acetic acid] | 100 to 500 nM | < 1 mg/kg | 5 to 100 nM
10 | Cc1c(Cc2ccccc2S(=O)(=O)N2CCCC2)c2c(n1CC(=O)O)CCCCC2 [Example I-22, 2-(2-Methyl-3-(2-(pyrrolidin-1-ylsulfonyl)benzyl)-5,6,7,8-tetrahydrocyclohepta[b]pyrrol-1(4H)-yl)acetic acid] | – | < 1 mg/kg | 5 to 100 nM
11 | Cc1c(Cc2ccccc2S(=O)(=O)N2CCOCC2)c2c(n1CC(=O)O)CCC2 [Example I-23, 2-(2-methyl-3-(2-(morpholinosulfonyl)benzyl)-5,6-dihydrocyclopenta[b]pyrrol-1(4H)-yl)acetic acid] | – | 1 to 10 mg/kg | –
12 | Cc1c(Cc2ccccc2S(=O)(=O)N2CCOCC2)c2c(n1CC(=O)O)CC(C)(C)CC2=O [Example I-40, 2-(2,6,6-trimethyl-3-(2-(morpholinosulfonyl)benzyl)-4-oxo-4,5,6,7-tetrahydro-1H-indol-1-yl)acetic acid] | 5 to 100 nM | < 1 mg/kg | < 5 nM
13 | Cc1c(Cc2ccccc2S(=O)(=O)N2CCCC2)c2c(n1CC(=O)O)CC(C)(C)CC2=O [Example I-43, 2-(2,6,6-trimethyl-4-oxo-3-(2-(pyrrolidin-1-ylsulfonyl)benzyl)-4,5,6,7-tetrahydro-1H-indol-1-yl)acetic acid] | 5 to 100 nM | < 1 mg/kg | < 5 nM
14 | Cc1c(Cc2ccccc2S(=O)(=O)N(C)c2ccccc2)c2c(n1CC(=O)O)CC(C)(C)CC2=O [Example I-49, 2-(2,6,6-trimethyl-3-(2-(N-methyl-N-phenylsulfamoyl)benzyl)-4-oxo-4,5,6,7-tetrahydro-1H-indol-1-yl)acetic acid] | – | 1 to 10 mg/kg | < 5 nM
15 | CCOC(=O)Cn1c(C)c(Cc2ccccc2S(=O)(=O)N2CCCC2)c2c1CC(C)(C)CC2=O [Example I-51, ethyl 2-(2,6,6-trimethyl-4-oxo-3-(2-(pyrrolidin-1-ylsulfonyl)benzyl)-4,5,6,7-tetrahydro-1H-indol-1-yl)acetate] | – | < 1 mg/kg | 100 to 500 nM
16 | Cc1c(Cc2ccccc2S(=O)(=O)N2CCCC2)c2c(n1CC(=O)OC(C)C)CC(C)(C)CC2=O [Example I-55, isopropyl 2-(2,6,6-trimethyl-4-oxo-3-(2-(pyrrolidin-1-ylsulfonyl)benzyl)-4,5,6,7-tetrahydro-1H-indol-1-yl)acetate] | – | < 1 mg/kg | 100 to 500 nM
